Measurements: PMC5218480 (PLoS ONE, 2017)

Test system: MV-4-11 cells
Assay: Gene expression microarray analysis (Affymetrix PrimeView) and GSEA
Format: cell-based, human
Set-up: RFU PODN (11730768_x_at) / Fold change /veh PODN (11730768_x_at) / RFU LINC00158 (11744669_a_at) / Fold change /veh LINC00158 (11744669_a_at) / RFU DUSP10 (11751237_a_at) / Fold change /veh DUSP10 (11751237_a_at) / RFU ID3 (11757404_x_at) / Fold change /veh ID3 (11757404_x_at) / RFU PLEKHG5 (11737974_s_at) / Fold change /veh PLEKHG5 (11737974_s_at) / RFU LRRC4B (11730491_at) / Fold change /veh LRRC4B (11730491_at) / RFU GIMAP4 (11747438_a_at) / Fold change /veh GIMAP4 (11747438_a_at) / RFU KRT8 (11758183_x_at) / Fold change /veh KRT8 (11758183_x_at) / RFU CNN1 (11734310_a_at) / Fold change /veh CNN1 (11734310_a_at) / RFU VPS37D (11726825_at) / Fold change /veh VPS37D (11726825_at) / RFU C10orf10 (11716522_x_at) / Fold change /veh C10orf10 (11716522_x_at) / RFU KIR2DL2 /// KIR2DL4 /// KIR2DL5A /// KIR2DL5B /// KIR2DS1 /// KIR2DS2 /// KIR2DS3 /// KIR2DS4 /// KIR3DL3 /// KIR3DL3 /// KIR3DS1 (11738374_at) / Fold change /veh KIR2DL2 /// KIR2DL4 /// KIR2DL5A /// KIR2DL5B /// KIR2DS1 /// KIR2DS2 /// KIR2DS3 /// KIR2DS4 /// KIR3DL3 /// KIR3DL3 /// KIR3DS1 (11738374_at) / RFU C1QL1 (11718748_at) / Fold change /veh C1QL1 (11718748_at) / RFU TMPRSS4 (11747572_a_at) / Fold change /veh TMPRSS4 (11747572_a_at) / RFU HAMP (11756126_x_at) / Fold change /veh HAMP (11756126_x_at) / RFU RNFT2 (11725882_a_at) / Fold change /veh RNFT2 (11725882_a_at) / RFU NR4A2 (11747474_a_at) / Fold change /veh NR4A2 (11747474_a_at) / RFU ABCC12 (11746883_a_at) / Fold change /veh ABCC12 (11746883_a_at) / RFU TMEM136 (11760407_x_at) / Fold change /veh TMEM136 (11760407_x_at) / RFU CLDN22 /// WWC2 (11732394_at) / Fold change /veh CLDN22 /// WWC2 (11732394_at) / RFU HLA-DPB1 (11760878_x_at) / Fold change /veh HLA-DPB1 (11760878_x_at) / RFU SPINT1 (11716480_a_at) / Fold change /veh SPINT1 (11716480_a_at) / RFU GAP43 (11754022_s_at) / Fold change /veh GAP43 (11754022_s_at) / RFU A4GNT (11735810_at) / Fold change /veh A4GNT (11735810_at) / RFU PRB3 (11715151_x_at) / Fold change /veh PRB3 (11715151_x_at) / RFU TUBB4B (11761932_at) / Fold change /veh TUBB4B (11761932_at) / RFU CAPN14 (11732068_a_at) / Fold change /veh CAPN14 (11732068_a_at) / RFU TMCC2 (11721928_a_at) / Fold change /veh TMCC2 (11721928_a_at) / RFU IRGQ (11745062_a_at) / Fold change /veh IRGQ (11745062_a_at) / RFU FAM174B (11720279_a_at) / Fold change /veh FAM174B (11720279_a_at) / RFU TMPRSS4 (11748680_a_at) / Fold change /veh TMPRSS4 (11748680_a_at) / RFU FAM212B (11763350_a_at) / Fold change /veh FAM212B (11763350_a_at) / RFU PLEKHG5 (11743358_a_at) / Fold change /veh PLEKHG5 (11743358_a_at) / RFU ZSCAN30 (11745921_a_at) / Fold change /veh ZSCAN30 (11745921_a_at) / RFU CMKLR1 (11741424_a_at) / Fold change /veh CMKLR1 (11741424_a_at) / RFU LOC101060620 /// MAPK8IP1 (11723275_at) / Fold change /veh LOC101060620 /// MAPK8IP1 (11723275_at) / RFU SPTSSB (11747773_x_at) / Fold change /veh SPTSSB (11747773_x_at) / RFU PRSS12 (11739890_at) / Fold change /veh PRSS12 (11739890_at) / RFU BIN1 (11741810_x_at) / Fold change /veh BIN1 (11741810_x_at) / RFU WNT11 (11732464_a_at) / Fold change /veh WNT11 (11732464_a_at) / RFU C10orf10 (11716521_a_at) / Fold change /veh C10orf10 (11716521_a_at) / RFU C5orf56 (11738089_at) / Fold change /veh C5orf56 (11738089_at) / RFU CYB561 (11721691_x_at) / Fold change /veh CYB561 (11721691_x_at) / RFU ANKRD19P (11752326_a_at) / Fold change /veh ANKRD19P (11752326_a_at) / RFU OR2T12 /// OR2T33 /// OR2T8 (11738714_s_at) / Fold change /veh OR2T12 /// OR2T33 /// OR2T8 (11738714_s_at) / RFU VCAN (11748164_a_at) / Fold change /veh VCAN (11748164_a_at) / RFU JSRP1 (11732532_at) / Fold change /veh JSRP1 (11732532_at) / RFU KRTAP10-11 (11738290_x_at) / Fold change /veh KRTAP10-11 (11738290_x_at) / RFU MYO3A (11730013_a_at) / Fold change /veh MYO3A (11730013_a_at) / RFU EBF3 (11725865_a_at) / Fold change /veh EBF3 (11725865_a_at) / RFU CAMK2N1 (11719241_x_at) / Fold change /veh CAMK2N1 (11719241_x_at) / RFU C5orf56 (11738088_a_at) / Fold change /veh C5orf56 (11738088_a_at) / RFU OLFML3 (11715873_a_at) / Fold change /veh OLFML3 (11715873_a_at) / RFU LOC100653217 /// NTM (11731650_a_at) / Fold change /veh LOC100653217 /// NTM (11731650_a_at) / RFU MAPK11 (11762145_a_at) / Fold change /veh MAPK11 (11762145_a_at) / RFU FIZ1 (11724087_x_at) / Fold change /veh FIZ1 (11724087_x_at) / RFU OASL (11726364_x_at) / Fold change /veh OASL (11726364_x_at) / RFU SOX15 (11748057_x_at) / Fold change /veh SOX15 (11748057_x_at) / RFU CD79A (11719716_a_at) / Fold change /veh CD79A (11719716_a_at) / RFU HIST1H1D (11736915_at) / Fold change /veh HIST1H1D (11736915_at) / RFU CASKIN2 (11723855_a_at) / Fold change /veh CASKIN2 (11723855_a_at) / RFU LOC730098 (11760151_x_at) / Fold change /veh LOC730098 (11760151_x_at) / RFU OR4N2 (11742367_at) / Fold change /veh OR4N2 (11742367_at) / RFU PRRT2 (11749266_a_at) / Fold change /veh PRRT2 (11749266_a_at) / RFU SNX32 (11753110_a_at) / Fold change /veh SNX32 (11753110_a_at) / RFU CDHR5 (11726645_a_at) / Fold change /veh CDHR5 (11726645_a_at) / RFU RCAN1 (11760418_a_at) / Fold change /veh RCAN1 (11760418_a_at) / RFU FAM167A (11723789_a_at) / Fold change /veh FAM167A (11723789_a_at) / RFU FAM26E (11764081_at) / Fold change /veh FAM26E (11764081_at) / RFU ISYNA1 (11749810_s_at) / Fold change /veh ISYNA1 (11749810_s_at) / RFU ACY1 (11761880_at) / Fold change /veh ACY1 (11761880_at) / RFU 11764098_at / Fold change /veh 11764098_at / RFU SAMD14 (11745864_x_at) / Fold change /veh SAMD14 (11745864_x_at) / RFU NPB (11741838_a_at) / Fold change /veh NPB (11741838_a_at) / RFU TMPRSS6 (11731388_a_at) / Fold change /veh TMPRSS6 (11731388_a_at) / RFU KRTAP10-2 (11738614_at) / Fold change /veh KRTAP10-2 (11738614_at) / RFU ARHGAP8 /// PRR5-ARHGAP8 (11727945_x_at) / Fold change /veh ARHGAP8 /// PRR5-ARHGAP8 (11727945_x_at) / RFU KRTAP5-7 /// NADSYN1 (11734609_at) / Fold change /veh KRTAP5-7 /// NADSYN1 (11734609_at) / RFU RASL12 (11751679_a_at) / Fold change /veh RASL12 (11751679_a_at) / RFU CDKN2B (11736163_a_at) / Fold change /veh CDKN2B (11736163_a_at) / RFU PRF1 (11729649_at) / Fold change /veh PRF1 (11729649_at) / RFU, ZNF638 /// ZNF638-IT1 / Fold change vs veh, ZNF638 /// ZNF638-IT1 / RFU, PANK3 / Fold change vs veh, PANK3 / RFU, SH3YL1 / Fold change vs veh, SH3YL1 / RFU, ZEB2 / Fold change vs veh, ZEB2 / RFU, NRIP1 / Fold change vs veh, NRIP1 / RFU, PTTG1IP / Fold change vs veh, PTTG1IP / RFU, CAPN2 / Fold change vs veh, CAPN2 / RFU, MED14 / Fold change vs veh, MED14 / RFU, SNORA58 / Fold change vs veh, SNORA58 / RFU, C1orf63 / Fold change vs veh, C1orf63 / RFU, LRRFIP1 / Fold change vs veh, LRRFIP1 / RFU, NDUFAF7 / Fold change vs veh, NDUFAF7 / RFU, SLC12A2 / Fold change vs veh, SLC12A2 / RFU, IBTK / Fold change vs veh, IBTK / RFU, ESF1 / Fold change vs veh, ESF1 / Fold change vs veh, TMEM50B / RFU, TAOK1 / Fold change vs veh, TAOK1 / RFU, ACBD3 / Fold change vs veh, ACBD3 / RFU, TMA16 / Fold change vs veh, TMA16 / RFU, RWDD3 / Fold change vs veh, RWDD3 / RFU, BCAT1 / Fold change vs veh, BCAT1 / RFU, EDEM3 / Fold change vs veh, EDEM3 / RFU, TMEM33 / Fold change vs veh, TMEM33 / RFU, WDR75 / Fold change vs veh, WDR75 / RFU, AHCTF1 / Fold change vs veh, AHCTF1 / RFU, TFRC / Fold change vs veh, TFRC / RFU, ZDHHC17 / Fold change vs veh, ZDHHC17 / RFU, NOM1 / Fold change vs veh, NOM1 / RFU, ARL8B / Fold change vs veh, ARL8B / RFU, ZBTB11 / Fold change vs veh, ZBTB11 / RFU, TAMM41 / Fold change vs veh, TAMM41 / RFU, KIAA1704 /// LOC100996395 / Fold change vs veh, KIAA1704 /// LOC100996395 / RFU, ING1 / Fold change vs veh, ING1 / RFU, TRMT61B / Fold change vs veh, TRMT61B / RFU, FUBP3 / Fold change vs veh, FUBP3 / RFU, TP53 / Fold change vs veh, TP53 / RFU, TNKS2 / Fold change vs veh, TNKS2 / RFU, ZFP14 / Fold change vs veh, ZFP14 / RFU, ACTR2 / Fold change vs veh, ACTR2 / RFU, PPP3R1 / Fold change vs veh, PPP3R1 / RFU, PIK3R1 / Fold change vs veh, PIK3R1 / RFU, HNRNPA1 / Fold change vs veh, HNRNPA1 / RFU, RNF170 / Fold change vs veh, RNF170 / RFU, ZNF28 / Fold change vs veh, ZNF28 / RFU, RNGTT / Fold change vs veh, RNGTT / RFU, OGT / Fold change vs veh, OGT / RFU, BRD1 / Fold change vs veh, BRD1 / RFU, MARS / Fold change vs veh, MARS / RFU, ZNF655 / Fold change vs veh, ZNF655 / RFU, FAHD1 / Fold change vs veh, FAHD1 / RFU, BDP1 / Fold change vs veh, BDP1 / RFU, LRRCC1 / Fold change vs veh, LRRCC1 / RFU, ARID1A / Fold change vs veh, ARID1A / RFU, ZNF146 / Fold change vs veh, ZNF146 / RFU, ZNF330 / Fold change vs veh, ZNF330 / RFU, GPN3 / Fold change vs veh, GPN3 / RFU, C9orf123 / Fold change vs veh, C9orf123 / RFU, N4BP2L2 / Fold change vs veh, N4BP2L2 / RFU, ARFIP1 / Fold change vs veh, ARFIP1 / RFU, FAM179B / Fold change vs veh, FAM179B / RFU, BCL10 / Fold change vs veh, BCL10 / RFU, UHRF1BP1L / Fold change vs veh, UHRF1BP1L / RFU, BET1 / Fold change vs veh, BET1 / RFU, CNOT2 / Fold change vs veh, CNOT2 / RFU, ZNF268 / Fold change vs veh, ZNF268 / Fold change vs veh, ZNF507 / RFU, DGCR2 / Fold change vs veh, DGCR2 / RFU, WDSUB1 / Fold change vs veh, WDSUB1 / Fold change vs veh, HSP90B1 /// MIR3652 / RFU, ADSS / Fold change vs veh, ADSS / RFU, GK / Fold change vs veh, GK / RFU, ZNF148 / Fold change vs veh, ZNF148 / RFU, TAF9 / Fold change vs veh, TAF9 / RFU, SLC1A5 / Fold change vs veh, SLC1A5 / RFU, SLMO2 / Fold change vs veh, SLMO2 / RFU, ABCC4 / Fold change vs veh, ABCC4 / RFU, LOC101060439 /// RAP1B / Fold change vs veh, LOC101060439 /// RAP1B / RFU, RFX7 / Fold change vs veh, RFX7 / RFU, GTPBP10 / Fold change vs veh, GTPBP10 / RFU, CNEP1R1 / Fold change vs veh, CNEP1R1 / RFU, BIVM-ERCC5 /// ERCC5 / Fold change vs veh, BIVM-ERCC5 /// ERCC5 / RFU, ILF3 / Fold change vs veh, ILF3 / RFU 11762660_at / Fold change /veh 11762660_at / RFU VCAN (11757783_s_at) / Fold change /veh VCAN (11757783_s_at) / RFU DDX43 (11728927_at) / Fold change /veh DDX43 (11728927_at) / RFU KRT8 (11758188_x_at) / Fold change /veh KRT8 (11758188_x_at) / RFU NKD1 (11759106_at) / Fold change /veh NKD1 (11759106_at) / RFU SRD5A1 (11742802_a_at) / Fold change /veh SRD5A1 (11742802_a_at) / RFU TPSAB1 /// TPSB2 (11721975_s_at) / Fold change /veh TPSAB1 /// TPSB2 (11721975_s_at) / RFU GSTM3 (11746129_a_at) / Fold change /veh GSTM3 (11746129_a_at) / RFU IL23R (11737362_x_at) / Fold change /veh IL23R (11737362_x_at) / RFU TMEM51 (11727254_a_at) / Fold change /veh TMEM51 (11727254_a_at) / RFU PIWIL2 (11732686_x_at) / Fold change /veh PIWIL2 (11732686_x_at) / RFU ORM1 (11744905_x_at) / Fold change /veh ORM1 (11744905_x_at) / RFU CCDC152 (11743942_at) / Fold change /veh CCDC152 (11743942_at) / RFU ECM1 (11717891_a_at) / Fold change /veh ECM1 (11717891_a_at) / RFU IL23R (11748794_a_at) / Fold change /veh IL23R (11748794_a_at) / RFU TNFAIP8L3 (11732012_x_at) / Fold change /veh TNFAIP8L3 (11732012_x_at) / RFU MBOAT4 (11741988_at) / Fold change /veh MBOAT4 (11741988_at) / RFU 11764193_at / Fold change /veh 11764193_at / RFU TMEM53 (11763286_at) / Fold change /veh TMEM53 (11763286_at) / RFU MAGEB2 (11727129_at) / Fold change /veh MAGEB2 (11727129_at) / RFU TMEM200A (11744735_a_at) / Fold change /veh TMEM200A (11744735_a_at) / RFU CCDC152 (11751479_a_at) / Fold change /veh CCDC152 (11751479_a_at) / RFU FAM211A (11726209_a_at) / Fold change /veh FAM211A (11726209_a_at) / RFU RGS16 (11746705_a_at) / Fold change /veh RGS16 (11746705_a_at) / RFU VCAN (11755009_s_at) / Fold change /veh VCAN (11755009_s_at) / RFU RHOB (11743442_s_at) / Fold change /veh RHOB (11743442_s_at) / RFU RGS16 (11720943_a_at) / Fold change /veh RGS16 (11720943_a_at) / RFU RGS16 (11720944_at) / Fold change /veh RGS16 (11720944_at) / RFU, VPS4B / Fold change vs veh, VPS4B / RFU, CREB1 / Fold change vs veh, CREB1 / RFU, DNAJC13 / Fold change vs veh, DNAJC13 / RFU, GNAQ / Fold change vs veh, GNAQ / RFU, CDK5R1 / Fold change vs veh, CDK5R1 / RFU, ZRANB3 / Fold change vs veh, ZRANB3 / RFU, CUL4A / Fold change vs veh, CUL4A / RFU, CCNY / Fold change vs veh, CCNY / RFU, UFL1 / Fold change vs veh, UFL1 / RFU, COG3 / Fold change vs veh, COG3 / RFU, DIAPH2 / Fold change vs veh, DIAPH2 / RFU, SKA2 / Fold change vs veh, SKA2 / RFU, AFF3 / Fold change vs veh, AFF3 / RFU, LMF1 / Fold change vs veh, LMF1 / RFU, IPO11 / Fold change vs veh, IPO11 / RFU, DFFB / Fold change vs veh, DFFB / RFU, FOXP1 / Fold change vs veh, FOXP1 / RFU, CARD8 / Fold change vs veh, CARD8 / RFU, STRN3 / Fold change vs veh, STRN3 / RFU, ADK / Fold change vs veh, ADK / RFU, RASSF2 / Fold change vs veh, RASSF2 / RFU, WIPF1 / Fold change vs veh, WIPF1 / RFU, LARP1B / Fold change vs veh, LARP1B / RFU, RASA1 / Fold change vs veh, RASA1 / RFU, RB1 / Fold change vs veh, RB1 / RFU, PPFIA1 / Fold change vs veh, PPFIA1 / RFU, MAT2A / Fold change vs veh, MAT2A / RFU, CCT5 / Fold change vs veh, CCT5 / RFU, WDR92 / Fold change vs veh, WDR92 / RFU, CUX1 / Fold change vs veh, CUX1 / RFU, TTC7A / Fold change vs veh, TTC7A / RFU, TMEM135 / Fold change vs veh, TMEM135 / RFU, DEPTOR / Fold change vs veh, DEPTOR / RFU, CPM / Fold change vs veh, CPM / RFU, DNAJB6 / Fold change vs veh, DNAJB6 / RFU, CACNA2D3 / Fold change vs veh, CACNA2D3 / RFU, DTX4 / Fold change vs veh, DTX4 / RFU, TFCP2 / Fold change vs veh, TFCP2 / RFU, GMCL1 /// GMCL1P1 / Fold change vs veh, GMCL1 /// GMCL1P1 / RFU, AEBP2 / Fold change vs veh, AEBP2 / RFU, SNHG1 /// SNORD22 /// SNORD25 /// SNORD26 /// SNORD27 /// SNORD28 /// SNORD29 /// SNORD31 / Fold change vs veh, SNHG1 /// SNORD22 /// SNORD25 /// SNORD26 /// SNORD27 /// SNORD28 /// SNORD29 /// SNORD31 / Fold change (Aza/veh), C12orf56 (ProbeSet 11735607_a_at) / Fold change (ACY-1035/veh), C12orf56 (ProbeSet 11735607_a_at) / Fold change (Aza/veh), FGFR1OP (ProbeSet 11751329_s_at) / Fold change (ACY-1035/veh), FGFR1OP (ProbeSet 11751329_s_at) / Fold change (Aza/veh), VPS36 (ProbeSet 11739960_a_at) / Fold change (ACY-1035/veh), VPS36 (ProbeSet 11739960_a_at) / RFU SYPL1 (11715823_x_at) / Fold change /veh SYPL1 (11715823_x_at) / RFU IGFBP7 (11715501_s_at) / Fold change /veh IGFBP7 (11715501_s_at) / RFU REEP3 (11722064_at) / Fold change /veh REEP3 (11722064_at) / RFU IGLL1 (11728026_x_at) / Fold change /veh IGLL1 (11728026_x_at): dose or concentration left out as unconfirmed
Details: MV-4-11 cells, 48 hours

Nc1ncn([C@@H]2O[C@H](CO)[C@@H](O)[C@H]2O)c(=O)n1 [azacitidine]
RFU IL23R (11748794_a_at): 8.76 RFU
